Each compound was assayed against T1, GlyT1 transporter (Homo sapiens, UniProt P48067) (assay: GlyT1 assay: 3H-glycine uptake into SK-N-MC cells (Cytostar-T format)). Conditions: glycine uptake in human SK-N-MC cells endogenously expressing GlyT1; 500 nM glycine, 1% DMSO, signal recorded over 60 min.
T1 construct: endogenously expressing the GlyT1 transporter; host or cells: SK-N-MC human neuroblastoma cells
T1 sequence (P48067 1-706): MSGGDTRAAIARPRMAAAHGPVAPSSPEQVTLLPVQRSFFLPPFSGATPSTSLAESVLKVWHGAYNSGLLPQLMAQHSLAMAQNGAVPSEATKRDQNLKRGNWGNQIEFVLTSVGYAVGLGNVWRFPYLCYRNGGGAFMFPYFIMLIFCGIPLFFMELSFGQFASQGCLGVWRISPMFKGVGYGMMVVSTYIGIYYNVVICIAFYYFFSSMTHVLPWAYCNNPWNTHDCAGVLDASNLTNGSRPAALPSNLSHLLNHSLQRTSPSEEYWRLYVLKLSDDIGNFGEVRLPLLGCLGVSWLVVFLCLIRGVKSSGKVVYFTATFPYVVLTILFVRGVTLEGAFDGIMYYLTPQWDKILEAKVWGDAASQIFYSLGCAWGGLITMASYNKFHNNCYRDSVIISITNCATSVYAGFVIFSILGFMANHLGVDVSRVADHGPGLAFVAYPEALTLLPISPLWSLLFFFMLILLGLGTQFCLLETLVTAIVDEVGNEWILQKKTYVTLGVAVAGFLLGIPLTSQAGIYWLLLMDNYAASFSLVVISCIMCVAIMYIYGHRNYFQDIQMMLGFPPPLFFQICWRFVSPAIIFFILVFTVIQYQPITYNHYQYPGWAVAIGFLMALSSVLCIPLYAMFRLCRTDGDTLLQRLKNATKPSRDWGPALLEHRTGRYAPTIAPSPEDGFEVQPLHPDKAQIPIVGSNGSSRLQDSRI
Assay type: cell-based
Method in brief: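 Endogenous GlyT1 in human SK-N-MC cells, confluent after 16-18 h, in HBSS with 5 mM alanine. Compounds preincubated about 5-10 min, then 500 nM glycine (half ³H) added, 1% DMSO. Scintillation-proximity uptake recorded kinetically over 60 min; IC50 from linear-range slopes over 8 concentrations, nonspecific uptake defined with 10 μM RG-1678.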

Question: For `C[C@H](Oc1ccc(S(C)(=O)=O)cc1C(=O)N1CC2CC2(c2nnc(C3(C(F)(F)F)CC3)o2)C1)C(F)(F)F` (single isomer, unassigned) [Example 153, [5-Methanesulfonyl-2-(2,2,2-trifluoro-1-methyl-ethoxy)-phenyl]-{1-[5-(1-trifluoromethyl-cyclopropyl)-[1,3,4]oxadiazol-2-yl]-3-aza-bicyclo[3.1.0]hex-3-yl}-methanone], which IC50 is on record?
Answer: 1200 nM

Question: For `C[C@H](Oc1ccc(S(C)(=O)=O)cc1C(=O)N1CC2CC2(c2nc(C(F)(F)F)no2)C1)C(F)(F)F` (single isomer, unassigned) [Example 84, [5-Methanesulfonyl-2-(2,2,2-trifluoro-1-methyl-ethoxy)-phenyl]-[1-(3-trifluoromethyl-[1,2,4]oxadiazol-5-yl)-3-aza-bicyclo[3.1.0]hex-3-yl]-methanone], which IC50 is on record?
Answer: 16 nM

Question: Which IC50 does the source give for `C[C@H](Oc1ccc(S(C)(=O)=O)cc1C(=O)N1CC2CC2(c2nnc(C(F)(F)F)o2)C1)C(F)(F)F` (single isomer, unassigned) [Example 127, [5-Methanesulfonyl-2-(2,2,2-trifluoro-1-methyl-ethoxy)-phenyl]-[1-(5-trifluoromethyl-[1,3,4]oxadiazol-2-yl)-3-aza-bicyclo[3.1.0]hex-3-yl]-methanone] here?
Answer: 2660 nM

Question: Which IC50 does the source give for `CC(C)Oc1ccc(S(C)(=O)=O)cc1C(=O)N1CC2CC2(c2nc(C3(C(F)(F)F)CC3)no2)C1` (racemic) [Example 154, (2-Isopropoxy-5-methanesulfonyl-phenyl)-{1-[3-(1-trifluoromethyl-cyclopropyl)-[1,2,4]oxadiazol-5-yl]-3-aza-bicyclo[3.1.0]hex-3-yl}-methanone] here?
Answer: 72 nM

Question: Which IC50 does the source give for `Cc1c(C23CC2CN(C(=O)c2cc(S(C)(=O)=O)ccc2O[C@@H](C)C(F)(F)F)C3)noc1C(F)(F)F` (single isomer, unassigned) [Example 164] here?
Answer: 28 nM

Question: How did the IC50 turn out when `C[C@@H](Oc1ccc(S(C)(=O)=O)cc1C(=O)N1CC2CC2(c2nnc(C(F)(F)F)o2)C1)C(F)(F)F` (single isomer, unassigned) [Example 124, [5-Methanesulfonyl-2-(2,2,2-trifluoro-1-methyl-ethoxy)-phenyl]-[1-(5-trifluoromethyl-[1,3,4]oxadiazol-2-yl)-3-aza-bicyclo[3.1.0]hex-3-yl]-methanone] was run?
Answer: 503 nM

Question: How did the IC50 turn out when `Cc1c(C23CC2CN(C(=O)c2cc(S(C)(=O)=O)ccc2O[C@H](C)C(F)(F)F)C3)noc1C(F)(F)F` (single isomer, unassigned) [Example 162] was run?
Answer: 387 nM

Question: `CC(C)Oc1ccc(S(C)(=O)=O)cc1C(=O)N1CC2CC2(c2noc(C(F)(F)F)n2)C1` (racemic) [Example 96, (2-Isopropoxy-5-methanesulfonyl-phenyl)-[1-(5-trifluoromethyl-[1,2,4]oxadiazol-3-yl)-3-aza-bicyclo[3.1.0]hex-3-yl]-methanone] was tested. Which IC50 did it give?
Answer: 27 nM

Question: How did the IC50 turn out when `CCS(=O)(=O)c1ccc(O[C@@H](C)C(F)(F)F)c(C(=O)N2CC3CC3(c3cc(C(F)(F)F)on3)C2)c1` (mixture of isomers) [Example 102, [5-Ethanesulfonyl-2-(2,2,2-trifluoro-1-methyl-ethoxy)-phenyl]-[1-(5-trifluoromethyl-isoxazol-3-yl)-3-aza-bicyclo[3.1.0]hex-3-yl]-methanone] was run?
Answer: 18 nM

Question: With `C[C@@H](Oc1ccc(S(C)(=O)=O)cc1C(=O)N1CC2CC2(c2nc(C(F)(F)F)no2)C1)C(F)(F)F` (single isomer, unassigned) [Example 86, [5-Methanesulfonyl-2-(2,2,2-trifluoro-1-methyl-ethoxy)-phenyl]-[1-(3-trifluoromethyl-[1,2,4]oxadiazol-5-yl)-3-aza-bicyclo[3.1.0]hex-3-yl]-methanone] as the compound, how does the IC50 read?
Answer: 20 nM

Question: With `C[C@H](Oc1ccc(S(C)(=O)=O)cc1C(=O)N1CC2CC2(c2noc(C3CC3)n2)C1)C(F)(F)F` (single isomer, unassigned) [Example 11, [1-(5-Cyclopropyl-[1,2,4]oxadiazol-3-yl)-3-aza-bicyclo[3.1.0]hex-3-yl]-[5-methanesulfonyl-2-(2,2,2-trifluoro-1-methyl-ethoxy)-phenyl]-methanone] as the compound, how does the IC50 read?
Answer: 175 nM

Question: How did the IC50 turn out when `Cc1coc(C23CC2CN(C(=O)c2cc(S(C)(=O)=O)ccc2O[C@@H](C)C(F)(F)F)C3)n1` (mixture of isomers) [Example 33, [5-Methanesulfonyl-2-(2,2,2-trifluoro-1-methyl-ethoxy)-phenyl]-[1-(4-methyl-oxazol-2-yl)-3-aza-bicyclo[3.1.0]hex-3-yl]-methanone] was run?
Answer: 190 nM

Question: How did the IC50 turn out when `C[C@@H](Oc1ccc(S(C)(=O)=O)cc1C(=O)N1CC2CC2(c2csc(C(F)(F)F)n2)C1)C(F)(F)F` (mixture of isomers) [Example 29, [5-Methanesulfonyl-2-(2,2,2-trifluoro-1-methyl-ethoxy)-phenyl]-[1-(2-trifluoromethyl-thiazol-4-yl)-3-aza-bicyclo[3.1.0]hex-3-yl]-methanone] was run?
Answer: 11 nM

Question: How did the IC50 turn out when `C[C@H](Oc1ccc(S(C)(=O)=O)cc1C(=O)N1CC2CC2(c2ncco2)C1)C(F)(F)F` (mixture of isomers) [Example 20, [5-Methanesulfonyl-2-(2,2,2-trifluoro-1-methyl-ethoxy)-phenyl]-(1-oxazol-2-yl-3-aza-bicyclo[3.1.0]hex-3-yl)-methanone] was run?
Answer: 101 nM

Question: For `C[C@H](Oc1ccc(S(C)(=O)=O)cc1C(=O)N1CC2CC2(C2=NCC(C(F)(F)F)O2)C1)C(F)(F)F` (mixture of isomers) [Example 57, [5-Methanesulfonyl-2-(2,2,2-trifluoro-1-methyl-ethoxy)-phenyl]-[1-(5-trifluoromethyl-4,5-dihydro-oxazol-2-yl)-3-aza-bicyclo[3.1.0]hexyl-3-yl]-methanone], which IC50 is on record?
Answer: 354 nM

Question: With `CC(C)Oc1ccc(S(C)(=O)=O)cc1C(=O)N1CC2CC2(c2noc(C(F)(F)F)n2)C1` (single isomer, unassigned) [Example 98, (2-Isopropoxy-5-methanesulfonyl-phenyl)-[1-(5-trifluoromethyl-[1,2,4]oxadiazol-3-yl)-3-aza-bicyclo[3.1.0]hex-3-yl]-methanone] as the compound, how does the IC50 read?
Answer: 1890 nM

Question: With `C[C@H](Oc1ccc(S(C)(=O)=O)cc1C(=O)N1CC2CC2(c2nc(C3(C(F)(F)F)CC3)no2)C1)C(F)(F)F` (mixture of isomers) [Example 155, [5-Methanesulfonyl-2-(2,2,2-trifluoro-1-methyl-ethoxy)-phenyl]-{1-[3-(1-trifluoromethyl-cyclopropyl)-[1,2,4]oxadiazol-5-yl]-3-aza-bicyclo[3.1.0]hex-3-yl}-methanone] as the compound, how does the IC50 read?
Answer: 36 nM

Question: How did the IC50 turn out when `CCS(=O)(=O)c1ccc(O[C@H](C)C(F)(F)F)c(C(=O)N2CC3CC3(c3noc(C(F)(F)F)n3)C2)c1` (mixture of isomers) [Example 92, [5-Ethanesulfonyl-2-(2,2,2-trifluoro-1-methyl-ethoxy)-phenyl]-[1-(5-trifluoromethyl-[1,2,4]oxadiazol-3-yl)-3-aza-bicyclo[3.1.0]hex-3-yl]-methanone] was run?
Answer: 25 nM

Question: With `C[C@H](Oc1ccc(C#N)cc1C(=O)N1CC2CC2(c2noc(C(F)(F)F)n2)C1)C(F)(F)F` (single isomer, unassigned) [Example 89, 4-(2,2,2-Trifluoro-1-methyl-ethoxy)-3-[1-(5-trifluoromethyl-[1,2,4]oxadiazol-3-yl)-3-aza-bicyclo[3.1.0]hexane-3-carbonyl]-benzonitrile] as the compound, how does the IC50 read?
Answer: 97 nM
